The results in this text go back to ChEMBL document CHEMBL1201862, “PubChem BioAssay data set” (2004).

Test systems include MOLT-4; HOP-62; SN12C; UO-31; HCT-15; CAKI-1; M19-MEL; SF-268; HCT-116; SF-539; OVCAR-8; SW-620; EKVX; NCI-H522; SK-MEL-28; U-251; SK-OV-3; MDA-N; LOX IMVI; Hs-578T.
Experiment in all cases: NCI tumour cell line growth inhibition, 48 h

Structures are written as SMILES.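 Dose response: 5 concentrations. Exposure: 48 h. Format: 96-well plates. Endpoint: linear interpolation; highest concentration if not reached. GI50 = concentration required for 50% inhibition of growth.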 Activity calls are given as the source filed them. Cut-off read from the data, not from the text of the source: active = GI50 up to about 1.1 µM and inactive = higher.

On to `C=CCC12CCC(=O)C=C1CCC1(C2)OCCO1` (centres undefined), for which the GI50 is > 100 µM (inactive) in the experiment on MOLT-4; > 100 µM (inactive) in the experiment with HOP-62; > 100 µM (inactive) in the experiment with SN12C; > 100 µM (inactive) with UO-31; over 100 µM in the experiment on HCT-15; > 100 µM (inactive) with CAKI-1. The GI50 in the experiment with M19-MEL, with SF-268, in the experiment on HCT-116, with SF-539, in the experiment on OVCAR-8 and in the experiment on SW-620 was > 100 µM (inactive) in each case. In addition, the GI50 in the experiment with EKVX, with NCI-H522, in the experiment with SK-MEL-28, in the experiment with U-251 and in the experiment with SK-OV-3 was > 100 µM (inactive) in each case.
As for `O=C1c2c(F)c(F)c(F)c(F)c2SC2=NCCN12`, the GI50 in the experiment on MOLT-4 is 2.24 µM (inactive); in the experiment with HOP-62, 18.1 µM (inactive); in the experiment on SN12C, 9.25 µM (inactive); in the experiment with UO-31 it was 10.1 µM (inactive); in the experiment with HCT-15, 2.81 µM; in the experiment with CAKI-1, 3.1 µM (inactive). For the same compound, the GI50 in the experiment with SF-268 is 12.8 µM (inactive); in the experiment with HCT-116, 2.15 µM (inactive); in the experiment on SF-539, 16.3 µM (inactive); with OVCAR-8, 11.5 µM (inactive); in the experiment on MDA-N, 3.45 µM (inactive); in the experiment with LOX IMVI it was 1.61 µM (inactive). Also, the GI50 with SW-620 was 2.38 µM (inactive); in the experiment with EKVX, 19.3 µM (inactive); in the experiment with NCI-H522, 2.82 µM (inactive); with SK-MEL-28 it was 9.38 µM (inactive); in the experiment on U-251, 8.87 µM (inactive); in the experiment with Hs-578T, 14.2 µM (inactive). In the experiment with SK-OV-3, the GI50 was 15.3 µM (inactive).
On to `COC(=O)C1(C(=O)OC)CC(=O)c2c(OC(=O)c3cccc(OC)c3C#N)ccc(OC(=O)c3cccc(OC)c3C#N)c2C1`, for which the GI50 was > 100 µM (inactive) in the experiment with MOLT-4; > 100 µM (inactive) in the experiment with HOP-62; > 100 µM (inactive) in the experiment on SN12C; 59.2 µM (inactive) with UO-31; over 100 µM in the experiment on HCT-15; > 100 µM (inactive) in the experiment with CAKI-1. For the same compound, the GI50 with SF-268, in the experiment on HCT-116, with SF-539, in the experiment on OVCAR-8, in the experiment on MDA-N and with LOX IMVI was > 100 µM (inactive) throughout. Besides, the GI50 in the experiment on SW-620, with EKVX, with NCI-H522, with SK-MEL-28, with U-251 and in the experiment with Hs-578T was > 100 µM (inactive) in each case. Further, in the experiment on SK-OV-3, the GI50 is > 100 µM (inactive).
In the case of `C#CCC(O)c1ccccc1C(O)CC#C` (centres undefined), the GI50 is > 100 µM (inactive) in the experiment with MOLT-4; > 100 µM (inactive) in the experiment with HOP-62; > 100 µM (inactive) in the experiment with SN12C; > 100 µM (inactive) in the experiment with UO-31; over 100 µM in the experiment with HCT-15; 65.2 µM (inactive) in the experiment with CAKI-1. The GI50 in the experiment on M19-MEL is > 100 µM (inactive); with OVCAR-8 it was > 100 µM (inactive); in the experiment on LOX IMVI, > 100 µM (inactive); with SW-620, > 100 µM (inactive); in the experiment with EKVX it was > 100 µM (inactive); in the experiment on NCI-H522 it was 70.1 µM (inactive). The GI50 with SK-MEL-28 is > 100 µM (inactive); in the experiment with SK-OV-3, 39.7 µM (inactive).
`CNc1nc2c(C)ccc3nc(N(C)C)[nH]c3c-2n1`: the GI50 was 32.7 µM (inactive) with MOLT-4; 43.7 µM (inactive) with HOP-62; 36.1 µM (inactive) in the experiment with SN12C; 34.6 µM (inactive) in the experiment with UO-31; 23.9 µM in the experiment with HCT-15; 65.5 µM (inactive) in the experiment on CAKI-1. In addition, the GI50 is 32.4 µM (inactive) in the experiment on SF-268; 38.9 µM (inactive) in the experiment with HCT-116; 24.8 µM (inactive) in the experiment with SF-539; 34.5 µM (inactive) in the experiment with OVCAR-8; 33.8 µM (inactive) in the experiment on MDA-N; 31.7 µM (inactive) with LOX IMVI. Further, the GI50 with SW-620 was 47.3 µM (inactive); in the experiment on EKVX it was 30.1 µM (inactive); in the experiment with NCI-H522, 54 µM (inactive); in the experiment on SK-MEL-28 it was 52 µM (inactive); in the experiment with U-251, 58.3 µM (inactive); with Hs-578T, 97.9 µM (inactive). Moreover, the GI50 in the experiment with SK-OV-3 is 21.1 µM (inactive).
Regarding `CSC1=C(C)S/C(=C\c2ccc(/C=C3\SC(C)=C(SC)S3)cc2)S1`, the GI50 in the experiment with MOLT-4 is > 100 µM (inactive); in the experiment on HOP-62, 33.5 µM (inactive); in the experiment on SN12C, > 100 µM (inactive); with UO-31, > 100 µM (inactive); in the experiment on HCT-15, over 100 µM; in the experiment with CAKI-1, > 100 µM (inactive). For the same compound, the GI50 was > 100 µM (inactive) in the experiment with SF-268; > 100 µM (inactive) in the experiment with HCT-116; 5.33 µM (inactive) in the experiment on SF-539; > 100 µM (inactive) in the experiment on OVCAR-8; > 100 µM (inactive) in the experiment with MDA-N; > 100 µM (inactive) in the experiment on LOX IMVI. Besides, the GI50 in the experiment on SW-620 is > 100 µM (inactive); in the experiment with EKVX it was > 100 µM (inactive); in the experiment with NCI-H522, > 100 µM (inactive); in the experiment with SK-MEL-28, > 100 µM (inactive); in the experiment with U-251, 79.8 µM (inactive); in the experiment on Hs-578T it was 83 µM (inactive). Moreover, in the experiment with SK-OV-3, the GI50 is > 100 µM (inactive).
On to `O=c1cccccc1NCCCCCCCCCNc1cccccc1=O`, for which the GI50 is 5.75 µM (inactive) in the experiment on MOLT-4; 15.1 µM (inactive) with HOP-62; 21 µM (inactive) in the experiment on SN12C; 12 µM (inactive) in the experiment with UO-31; 12.2 µM with HCT-15; 13.3 µM (inactive) in the experiment with CAKI-1. In addition, the GI50 in the experiment with M19-MEL was 15.2 µM (inactive); in the experiment on SF-268, 14.1 µM (inactive); in the experiment with HCT-116 it was 2.74 µM (inactive); with SF-539, 6.68 µM (inactive); in the experiment with OVCAR-8, 13.6 µM (inactive); in the experiment on LOX IMVI, 5.9 µM (inactive). Besides, the GI50 is 18.6 µM (inactive) in the experiment on SW-620; 4.56 µM (inactive) in the experiment with EKVX; 13.9 µM (inactive) in the experiment on NCI-H522; 10.6 µM (inactive) in the experiment on U-251; 33.1 µM (inactive) with SK-OV-3.
In the case of `O=c1oc2c(ccc3ccccc32)cc1C1=CSC2=NCCN12`, the GI50 in the experiment with MOLT-4 is 34.2 µM (inactive); in the experiment with HOP-62, 35.8 µM (inactive); in the experiment with SN12C, 42.4 µM (inactive); in the experiment on UO-31, 23.3 µM (inactive); in the experiment on HCT-15, 38.4 µM; with CAKI-1, 75.5 µM (inactive). Moreover, the GI50 in the experiment on SF-268 was 57.9 µM (inactive); with HCT-116, 32.4 µM (inactive); in the experiment on SF-539, 69.7 µM (inactive); in the experiment on OVCAR-8 it was 54.7 µM (inactive); in the experiment on MDA-N, 51.6 µM (inactive); in the experiment with LOX IMVI, 49.7 µM (inactive). The GI50 in the experiment on SW-620 was 29.7 µM (inactive); with EKVX, 25.5 µM (inactive); in the experiment on NCI-H522 it was 30.3 µM (inactive); with SK-MEL-28, 35.2 µM (inactive); in the experiment on U-251 it was 59.8 µM (inactive); in the experiment with Hs-578T, 73.1 µM (inactive). In addition, the GI50 in the experiment on SK-OV-3 was 67.3 µM (inactive).
With `N#CC(C(=O)C(N)=O)c1ccccc1Cl` (centres undefined), the GI50 is > 100 µM (inactive) in the experiment on MOLT-4; > 100 µM (inactive) in the experiment with SN12C; > 100 µM (inactive) with UO-31; over 100 µM in the experiment on HCT-15; > 100 µM (inactive) with CAKI-1; > 100 µM (inactive) with M19-MEL. Also, the GI50 with SF-268, in the experiment with HCT-116, in the experiment on SF-539, in the experiment with OVCAR-8, with LOX IMVI and in the experiment with SW-620 was > 100 µM (inactive) in each case. Further, the GI50 in the experiment with EKVX, in the experiment on SK-MEL-28, in the experiment with U-251 and with SK-OV-3 was > 100 µM (inactive) in each case.
`CCCC1N2CCCCC2[C@@H]2c3[nH]c4ccccc4c3CCN12` (some centres undefined): the GI50 in the experiment on MOLT-4 is > 100 µM (inactive); in the experiment on HOP-62, > 100 µM (inactive); in the experiment on SN12C, > 100 µM (inactive); with UO-31, > 100 µM (inactive); in the experiment on HCT-15 it was over 100 µM; in the experiment with CAKI-1, > 100 µM (inactive). Moreover, the GI50 in the experiment on M19-MEL, with SF-268, in the experiment with HCT-116, in the experiment on SF-539, in the experiment with OVCAR-8 and in the experiment on SW-620 was > 100 µM (inactive) in each case. Further, the GI50 in the experiment on EKVX, with SK-MEL-28, in the experiment with U-251 and in the experiment with SK-OV-3 was > 100 µM (inactive) in each case.
Regarding `CCOC(=O)P(=O)(O)c1ccc(N(C)Cc2ccccc2)cc1`, the GI50 in the experiment with MOLT-4 was > 100 µM (inactive); with HOP-62 it was > 100 µM (inactive); with SN12C, > 100 µM (inactive); in the experiment with UO-31, > 100 µM (inactive); in the experiment with HCT-15, over 100 µM; in the experiment with CAKI-1 it was > 100 µM (inactive). In addition, the GI50 with SF-268, with HCT-116, in the experiment on SF-539, with OVCAR-8, in the experiment on MDA-N and in the experiment with LOX IMVI was > 100 µM (inactive) each time. Further, the GI50 in the experiment with SW-620, in the experiment with EKVX, in the experiment with NCI-H522, in the experiment on SK-MEL-28, in the experiment on U-251 and with Hs-578T was > 100 µM (inactive) throughout. The GI50 with SK-OV-3 was > 100 µM (inactive).
Consider `CCC(C)(C)C(=O)O[C@H]1C[C@@H](C)C=C2C=C[C@H](C)[C@H](CC[C@@H]3C[C@@H](O)CC(=O)O3)[C@H]21` [SIMVASTATIN], for which the GI50 was > 30 µM (inactive) in the experiment with MOLT-4; 9.2 µM (inactive) in the experiment with HOP-62; 1.51 µM (inactive) in the experiment on SN12C; 3.72 µM (inactive) in the experiment with UO-31; 1.12 µM in the experiment on HCT-15; 4.03 µM (inactive) in the experiment on CAKI-1. The GI50 in the experiment with M19-MEL was 1.56 µM (inactive); with HCT-116 it was 3.27 µM (inactive); in the experiment with SF-539 it was 9.04 µM (inactive); with OVCAR-8, 1.37 µM (inactive); in the experiment with SW-620, 9.59 µM (inactive); in the experiment with EKVX, 0.948 µM (active). Further, the GI50 in the experiment with SK-MEL-28 was > 30 µM (inactive); in the experiment on U-251, 0.766 µM (active); in the experiment on SK-OV-3 it was 1.72 µM (inactive).
